Laboratory results published in patent US4569915A, “P. obtusus strain” (Cetus Corporation, priority 1984, dated 1986).

Assays:
P. obtusus P2O = assay: Relative activities of P. obtusus P2O on pyranose substrates; format: biochemical; conditions: about 1% (w/v) substrate; D-glucose = 100
Procedure: The P2O enzyme preparation from Example II was purified further using DEAE chromatography in 30 mM TRIS-HCl, pH 8.5, containing 2 mM EDTA and 10 ug/ml PMSF. The sample was eluted from a 5×16 cm column using a gradient of 0-300 mM NaCl. P2O activity was monitored using the orthodianisidine colorometric assay for the peroxide co-product, essentially as described by Ruelius et al., Biochim et Biophys. Acta 167, 493-500 (1968). P2O activity eluted at about 50 mM NaCl. Fractions containing the peak activity were pooled and concentrated to 0.5 ml by ultrafiltration using Amicon filters obtained from Amicon Corp. (Danvers, MA). Biogel P300 was obtained from Biorad Laboratories (Richmond, CA). The sample was further purified by molecular sieve chromatography using a 1.5×95 cm Biogel P300 column in 100 mM sodium phosphate, pH 7 buffer. The P2O activity eluted at a sharp peak corresponding to an apparent native molecular weight of about 290,000 daltons.
The enzyme appears to contain one covalently bound flavin molecule per subunit (detectable as UV-fluorescence in the 68,000 dalton SDS-PAGE band), and has absorption maxima at 276, 357 and 456 nm. The enzyme has a sedimentation coefficient of about 11.4, as determined by sucrose gradient ultracentrifugation. The relative activities of the enzyme, on D-glucose, L-sorbose, D-xylose, and D-gluconolactone are 100: 80: 48: 12, respectively, at about 1% (w/v) substrate concentration. As noted above with respect to FIG. 2, the enzyme has a broad pH optimum of between about 4.5 and 5.5.

L. betulinus P2O = assay: Relative activities of L. betulinus P2O on pyranose substrates; format: biochemical; conditions: 20 mM substrate; D-glucose = 100
Procedure: The resulting clear yellow supernatant was further purified using DEAE chromatography in 30 mM TRIS-HCl, pH 8.5, and eluted from the 5×16 cm column using a 0-300 mM NaCl gradient. The protein eluted at about 75 mM NaCl. Fractions containing the peak of P2O activity were pooled and concentrated to 0.5 ml by Amicon PM30 ultrafiltration, and then fractionated, according to native molecular weight, using a 1.5×95 cm Biogel P300 column. The column was run at a flow rate of 0.1 ml per minute, using 100 mM sodium phosphate, pH 7.0. The protein eluted in a fraction corresponding to an apparent native molecular weight of about 300,000 daltons. […] Based on the molecular weight data, the protein appears to be a homotetramer.
The enzyme contains a covalently attached flavin on each subunit, and has absorption maxima at 275, 360, and 450 nm. The relative activities of the purified enzyme on the pyranose substrates D-glucose, L-sorbose, D-xylose and delta-D-gluconolactone are 100: 43: 43: 26, respectively, at 20 mM substrate concentration. The enzyme has a broad pH optimum between about 5 and 6.

C. versicolor P2O = target: T1, C. versicolor P2O (Trametes versicolor, UniProt P79076); assay: Relative activities of C. versicolor P2O on pyranose substrates; format: biochemical; conditions: 1% (w/v) substrate; D-glucose = 100
T1 construct: A single band having a molecular weight of about 65,000 was observed when the enzyme was analyzed by SDS-PAGE; made in house; host or cells: C. versicolor itself (native producer; high-producer culture selected from NRRL 15152 / CMCC 0748)
Procedure: The enzyme was applied to a 2.6×40 cm DEAE column, washed, and eluted using a 0-300 mM NaCl gradient. The P2O elutes at about 220 mM. Portions of each fraction were assayed for P2O activity, by monitoring peroxide generation conventionally. Protein concentration was also determined by a conventional method. The fractions containing P2O activity were pooled and concentrated by ultrafiltration with an Amicon PM10 filter obtained from Amicon Corp. Peak fractions were dialyzed into 30 mM sodium acetate (pH 5.5), adjusted to 1.5M NaCl and loaded onto a phenylsepharose column. The P2O was eluted with a 0-1.5M NaCl gradient in 50 mM sodium acetate, pH 5.5. The enzyme eluted at about 1.1M NaCl. Fractions containing the peak activity were pooled and concentrated to 0.5 ml by Amicon PM30 ultrafiltration and sized according to native molecular weight using a 1.5×95 cm Biogel P300 column. Elution was at 0.1 ml/minute with 100 mM sodium phosphate, pH 7.0. Using known molecular weight markers in the column, the enzyme's apparent native molecular weight was calculated to be about 130,000 daltons. A single band having a molecular weight of about 65,000 was observed when the enzyme was analyzed by SDS-PAGE. The enzyme thus appears to be a homodimer. The enzyme was judged to be about 95% pure, based on the staining intensity of protein bands in SDS-PAGE.
The relative activities of the enzyme on the substrates D-glucose, L-sorbose, D-xylose and delta-D-gluconolactone are 100: 74: 41: 6, respectively, at 1% (w/v) substrate concentration. The enzyme has a pH optimum of about 5.0.

[1] = Glucosone breakdown on control of reaction pH by base addition; format: physicochemical; conditions: NaOH versus buffer such as 1M sodium bicarbonate or 1M TRIS-HCl
Procedure: Attempts to control reaction pH by the periodic addition of base have not been entirely successful. […] Therefore, in order to reduce glucosone breakdown, the base must be added in a manner which minimizes local regions of high pH in the solution. […] Introduction of the buffer with rapid mixing further reduces glucosone breakdown, presumably by reducing locally-elevated pH levels which occur when the buffer is added. It was noted above that even pH's in the range of 7.0 can lead to relatively rapid nonenzymatic glucosone breakdown. Ideally therefore, where high purity and yield are desired, one would like to avoid adding base to the reaction to offset the buildup of acidic by-products.

[2] = Nonenzymatic breakdown of glucosone (UV scan); format: physicochemical; conditions: 0.5% solution
Description: Secondly, studies indicate that pure glucosone undergoes relatively rapid, nonenzymatic breakdown above a pH of about 7.0. In one experiment, a 0.5% solution of highly purified glucosone (prepared by enzymatic conversion of glucose by a purified P. obtusus P2O enzyme at pH 4.4) was brought to pH 7.0 in a buffered solution. Immediately thereafter, the solution was scanned spectrophotometrically in the UV range between 200 and 350 nm, at one minute intervals.

[3] = Ericsson et al. and Lindberg et al.; cited from earlier work

Row | glucosone breakdown with periodic NaOH addition [1] | increase of 310 nm peak (nonenzymatic breakdown) ([2]; pH 7.0, five minute period) | SMILES | relative activity of P. obtusus P2O on substrate (P. obtusus P2O) | relative activity of L. betulinus P2O on substrate (L. betulinus P2O) | relative activity of C. versicolor P2O on substrate (C. versicolor P2O) | 310 nm peak (nonenzymatic breakdown) ([2]; pH 6.0, several minutes) | stability under alkaline conditions [3]
1 |  |  | O=C1O[C@H](CO)[C@@H](O)[C@H](O)[C@H]1O [delta-D-gluconolactone] | 12 | 26 | 6 |  | 
2 | more glucosone breakdown | increasing several-fold | O=CC(=O)[C@@H](O)[C@H](O)[C@H](O)CO [glucosone, D-arabino-2-hexosulose] |  |  |  | no initial peak at 310 nm was observed nor did one form | breaks down under alkaline conditions
3 |  |  | OC[C@H]1OC(O)[C@H](O)[C@@H](O)[C@@H]1O (stereo partly drawn) [D-glucose] | 100 | 100 | 100 |  | 
4 |  |  | O=C(CO)[C@@H](O)[C@H](O)[C@@H](O)CO [L-sorbose] | 80 | 43 | 74 |  | 
5 |  |  | OC1OC[C@@H](O)[C@H](O)[C@H]1O (stereo partly drawn) [D-xylose] | 48 | 43 | 41 |  | 
